Paper PMC8763936 (Investigational New Drugs, 2021)
Values joined by “and” are separate entries in the source; they are usually repeats but may differ in a detail not shown here. Equal entries are not always repeated.

Assays:
CYP1A2 = test: Induction of CYP enzymes in human hepatocytes; conditions: for Relative Effectiveness ± SD Based on CYP Activity / Relative Effectiveness ± SD Based on CYP mRNA: percent of positive control
Method: (§1) In vitro induction of CYP mRNA (CYPs 1A2, 2C8, 2C9 and 3A4) or enzyme activity (CYPs 1A2, 2C19 and 3A4) was assessed in human hepatocytes.

CYP3A4 [1] = test: Induction of CYP enzymes in human hepatocytes; conditions: for Relative Effectiveness ± SD Based on CYP Activity / Relative Effectiveness ± SD Based on CYP mRNA: percent of positive control
Method: as §1

[2] = Study 1 Cohort 1: single dose entrectinib alone or with itraconazole, plasma pharmacokinetics; conditions: for M5/Entrectinib ratio, AUCinf / M5/Entrectinib ratio, Cmax: arithmetic mean (CV)
Method: (§2) All doses of study medication were administered at the study center.

[3] = Study 1 Cohort 2: single dose entrectinib alone or with rifampin, plasma pharmacokinetics; conditions: for AUCinf / Cmax / t1/2 / half-life: geometric mean (geometric CV); for M5/Entrectinib ratio, AUCinf / M5/Entrectinib ratio, Cmax: arithmetic mean (CV)
Method: as §2

CYP2B6 = target: T1, CYP2B6 (Homo sapiens, UniProt P20813); test: In vitro CYP inhibition in human liver microsomes; type: in vitro ADME; set-up: purchased Corning-Gentest
T1 sequence (P20813 1-491): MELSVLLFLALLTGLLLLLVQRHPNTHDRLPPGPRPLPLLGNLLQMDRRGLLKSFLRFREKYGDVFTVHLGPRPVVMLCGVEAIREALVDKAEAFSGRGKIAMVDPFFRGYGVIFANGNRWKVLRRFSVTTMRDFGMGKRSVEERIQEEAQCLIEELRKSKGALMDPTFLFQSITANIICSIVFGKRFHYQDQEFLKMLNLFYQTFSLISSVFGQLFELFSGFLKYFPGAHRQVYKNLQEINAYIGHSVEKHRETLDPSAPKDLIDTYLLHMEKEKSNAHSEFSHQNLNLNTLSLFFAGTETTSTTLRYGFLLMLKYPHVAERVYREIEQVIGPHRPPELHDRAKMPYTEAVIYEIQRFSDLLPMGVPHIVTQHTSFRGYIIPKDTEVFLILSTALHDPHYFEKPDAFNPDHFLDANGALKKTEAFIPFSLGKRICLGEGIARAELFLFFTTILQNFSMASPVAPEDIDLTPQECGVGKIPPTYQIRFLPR

CYP2C9 = CYP2C9 (Homo sapiens, UniProt P11712); test: In vitro CYP inhibition in human liver microsomes; type: in vitro ADME; set-up: purchased Corning-Gentest
Sequence of CYP2C9 (P11712 whole entry): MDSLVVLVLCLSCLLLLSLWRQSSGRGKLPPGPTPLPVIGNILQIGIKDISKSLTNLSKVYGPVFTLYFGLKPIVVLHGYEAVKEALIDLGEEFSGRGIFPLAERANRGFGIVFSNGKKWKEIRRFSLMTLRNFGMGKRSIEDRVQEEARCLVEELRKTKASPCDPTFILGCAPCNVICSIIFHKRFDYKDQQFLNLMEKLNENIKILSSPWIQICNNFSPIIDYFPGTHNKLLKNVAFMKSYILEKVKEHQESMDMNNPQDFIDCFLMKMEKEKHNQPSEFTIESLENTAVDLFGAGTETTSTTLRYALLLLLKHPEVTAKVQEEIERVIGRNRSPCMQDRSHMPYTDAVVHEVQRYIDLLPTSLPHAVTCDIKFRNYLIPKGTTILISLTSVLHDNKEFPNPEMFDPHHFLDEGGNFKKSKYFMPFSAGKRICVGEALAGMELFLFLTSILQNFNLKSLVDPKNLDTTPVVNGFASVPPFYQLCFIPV

CYP2C19 = CYP2C19 (Homo sapiens, UniProt P33261); test: Metabolism by recombinantly expressed CYP enzymes; set-up: Entrectinib Metabolism to M5: key to the marks not given beside the values
Sequence of CYP2C19 (P33261 whole entry): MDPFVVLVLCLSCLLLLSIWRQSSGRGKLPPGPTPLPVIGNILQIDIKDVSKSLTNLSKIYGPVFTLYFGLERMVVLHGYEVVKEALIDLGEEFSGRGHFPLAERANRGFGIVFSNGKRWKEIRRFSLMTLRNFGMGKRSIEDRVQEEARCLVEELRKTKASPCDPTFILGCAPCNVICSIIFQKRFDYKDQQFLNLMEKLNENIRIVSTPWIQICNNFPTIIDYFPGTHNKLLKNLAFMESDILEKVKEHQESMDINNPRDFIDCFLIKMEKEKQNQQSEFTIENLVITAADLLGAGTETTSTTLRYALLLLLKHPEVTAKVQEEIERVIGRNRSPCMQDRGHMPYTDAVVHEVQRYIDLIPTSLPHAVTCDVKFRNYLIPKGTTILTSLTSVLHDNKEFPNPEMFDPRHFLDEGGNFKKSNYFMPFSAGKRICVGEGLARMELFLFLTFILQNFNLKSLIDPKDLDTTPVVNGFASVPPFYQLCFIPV

CYP2D6 = CYP2D6 (Homo sapiens, UniProt P10635); test: Metabolism by recombinantly expressed CYP enzymes
Sequence of CYP2D6 (P10635 whole entry): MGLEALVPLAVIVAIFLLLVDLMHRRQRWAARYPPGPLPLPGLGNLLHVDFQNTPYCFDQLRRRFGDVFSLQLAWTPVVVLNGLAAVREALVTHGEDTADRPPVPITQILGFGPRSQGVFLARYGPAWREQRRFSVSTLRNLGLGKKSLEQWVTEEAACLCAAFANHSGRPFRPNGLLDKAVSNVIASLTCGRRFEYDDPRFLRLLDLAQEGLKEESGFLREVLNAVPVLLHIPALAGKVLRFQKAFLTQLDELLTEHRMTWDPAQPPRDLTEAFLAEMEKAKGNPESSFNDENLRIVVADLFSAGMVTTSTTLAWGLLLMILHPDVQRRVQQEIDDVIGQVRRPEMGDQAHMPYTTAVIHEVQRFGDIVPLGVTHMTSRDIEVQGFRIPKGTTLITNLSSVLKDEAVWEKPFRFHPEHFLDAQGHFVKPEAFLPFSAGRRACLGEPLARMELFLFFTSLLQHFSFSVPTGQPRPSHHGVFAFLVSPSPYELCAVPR

CYP3A4 [4] = target: CYP3A4 (Homo sapiens, UniProt P08684); test: Metabolism by recombinantly expressed CYP enzymes; set-up: key to the marks not given beside the values
Sequence of CYP3A4 (Homo sapiens, UniProt P08684) (P08684 whole entry): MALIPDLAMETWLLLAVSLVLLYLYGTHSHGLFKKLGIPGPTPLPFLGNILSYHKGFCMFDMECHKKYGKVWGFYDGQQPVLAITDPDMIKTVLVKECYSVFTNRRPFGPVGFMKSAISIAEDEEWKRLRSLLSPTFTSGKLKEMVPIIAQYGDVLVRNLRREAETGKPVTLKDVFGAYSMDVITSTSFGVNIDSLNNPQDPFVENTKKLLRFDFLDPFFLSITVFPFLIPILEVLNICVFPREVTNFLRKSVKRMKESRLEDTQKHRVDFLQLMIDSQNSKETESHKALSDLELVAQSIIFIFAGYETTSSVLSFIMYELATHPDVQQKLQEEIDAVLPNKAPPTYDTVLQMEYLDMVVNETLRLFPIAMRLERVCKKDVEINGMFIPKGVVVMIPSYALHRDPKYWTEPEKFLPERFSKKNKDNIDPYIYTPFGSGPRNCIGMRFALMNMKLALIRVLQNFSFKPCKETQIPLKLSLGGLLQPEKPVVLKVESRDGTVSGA

CYP3A5 = CYP3A5 (Homo sapiens, UniProt P20815); test: Metabolism by recombinantly expressed CYP enzymes; set-up: Entrectinib Metabolism to M5 / M5 Metabolism: key to the marks not given beside the values
Sequence of CYP3A5 (P20815 whole entry): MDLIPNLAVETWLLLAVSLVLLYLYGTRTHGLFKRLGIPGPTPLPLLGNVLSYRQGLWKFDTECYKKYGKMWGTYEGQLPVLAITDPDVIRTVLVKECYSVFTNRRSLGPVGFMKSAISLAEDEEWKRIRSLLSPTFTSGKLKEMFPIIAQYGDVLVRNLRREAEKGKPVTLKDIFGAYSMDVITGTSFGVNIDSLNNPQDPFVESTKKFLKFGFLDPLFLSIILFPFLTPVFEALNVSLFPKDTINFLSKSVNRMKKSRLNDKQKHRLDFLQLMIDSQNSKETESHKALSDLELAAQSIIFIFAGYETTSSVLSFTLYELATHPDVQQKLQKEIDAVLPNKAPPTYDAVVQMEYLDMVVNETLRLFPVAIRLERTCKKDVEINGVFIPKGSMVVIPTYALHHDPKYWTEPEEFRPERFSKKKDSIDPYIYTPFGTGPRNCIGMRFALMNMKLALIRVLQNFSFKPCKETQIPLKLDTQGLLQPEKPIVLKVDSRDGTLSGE

[5] = Metabolic profile of entrectinib in pooled human liver microsomes
CYP2C8 = target: T2, CYP2C8 (Homo sapiens, UniProt P10632); test: In vitro CYP inhibition in human liver microsomes; type: in vitro ADME; set-up: was investigated in human liver microsomes; from tissue; host or cells: pooled human liver microsomes; conditions: for IC50: human liver microsomes
T2 sequence (P10632 1-490): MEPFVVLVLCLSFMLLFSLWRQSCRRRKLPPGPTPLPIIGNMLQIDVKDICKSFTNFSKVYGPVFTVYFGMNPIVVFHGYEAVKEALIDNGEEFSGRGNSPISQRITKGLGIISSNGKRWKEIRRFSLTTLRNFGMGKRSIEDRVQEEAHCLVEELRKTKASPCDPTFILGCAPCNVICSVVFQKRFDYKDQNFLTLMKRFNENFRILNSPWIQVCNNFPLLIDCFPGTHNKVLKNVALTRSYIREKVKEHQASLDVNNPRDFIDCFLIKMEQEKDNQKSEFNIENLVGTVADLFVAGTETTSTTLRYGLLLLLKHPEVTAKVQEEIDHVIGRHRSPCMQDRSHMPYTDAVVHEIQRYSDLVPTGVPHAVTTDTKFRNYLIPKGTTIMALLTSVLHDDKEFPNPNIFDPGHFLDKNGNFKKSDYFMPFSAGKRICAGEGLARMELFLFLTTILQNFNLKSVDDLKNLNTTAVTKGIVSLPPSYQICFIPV

[6] = Entrectinib 100 mg alone, geometric mean (geometric CV)
[7] = Entrectinib 100 mg with itraconazole 200 mg QD, geometric mean (geometric CV)
[8] = Entrectinib 100 mg with itraconazole
[9] = Entrectinib 600 mg with rifampin 600 mg QD
[10] = Entrectinib 600 mg with rifampin

O=C(Nc1n[nH]c2ccc(Cc3cc(F)cc(F)c3)cc12)c1ccc(N2CCNCC2)cc1NC1CCOCC1 [M5]
Relative Effectiveness ± SD Based on CYP Activity (CYP1A2; M5 0.5 µM): 0.575% ±0.657
Relative Effectiveness ± SD Based on CYP mRNA (CYP1A2; M5 0.5 µM): 0.22% ±0.23
Relative Effectiveness ± SD Based on CYP Activity (CYP1A2; M5 2.5 µM): 1.30% ±1.4
Relative Effectiveness ± SD Based on CYP mRNA (CYP1A2; M5 2.5 µM): 1.22% ±0.87
Relative Effectiveness ± SD Based on CYP Activity (CYP1A2; M5 10 µM): 0.445% ±0.27
Relative Effectiveness ± SD Based on CYP mRNA (CYP1A2; M5 10 µM): 1.70% ±0.15
Relative Effectiveness ± SD Based on CYP Activity (CYP3A4 [1]; M5 0.5 µM): 1.25% ±1.17
Relative Effectiveness ± SD Based on CYP mRNA (CYP3A4 [1]; M5 0.5 µM): 1.16% ±1.47
Relative Effectiveness ± SD Based on CYP Activity (CYP3A4 [1]; M5 2.5 µM): 4.61% ±3.06
Relative Effectiveness ± SD Based on CYP mRNA (CYP3A4 [1]; M5 2.5 µM): 5.9% ±5.01
Relative Effectiveness ± SD Based on CYP Activity (CYP3A4 [1]; M5 10 µM): 5.42% ±4.45
Relative Effectiveness ± SD Based on CYP mRNA (CYP3A4 [1]; M5 10 µM): 16.5% ±11.2
impact on the mRNA expression or activity of CYP3A4 (CYP3A4 [1]; human hepatocytes): no significant impact
AUCinf ([2]; Entrectinib 100 mg alone, single dose, healthy subjects, fasted, geometric mean (geometric CV)): 1710 (30%) nM•h
M5/Entrectinib ratio, AUCinf ([2]; Entrectinib 100 mg alone): 0.288 (28%)
M5/Entrectinib ratio, Cmax ([2]; Entrectinib 100 mg alone): 0.151 (26%)
Cmax [2, 6]: 0.0523 µM
t1/2 [2, 6]: 41 h and 40.8 (22%) h
Tmax ([2]; Entrectinib 100 mg alone, median (minimum, maximum)): 5.0 (3.0, 5.0) h
AUCinf [2, 7]: 4310 (30%) nM•h
Cmax [2, 7]: 0.0315 µM
t1/2 [2, 7]: 88.0 (32%) h
Tmax ([2]; Entrectinib 100 mg with itraconazole 200 mg QD, median (minimum, maximum)): 6.0 (5.0, 48.0) h
M5/Entrectinib ratio, AUCinf [2, 8]: 0.124 (29%)
M5/Entrectinib ratio, Cmax [2, 8]: 0.0538 (34%)
increase in AUCinf ([2]; coadministration of itraconazole with entrectinib): approximately 2.5 fold
M5 exposure as share of entrectinib exposure (mean M5/entrectinib ratio for AUCinf) ([2]; entrectinib 100 mg alone): approximately 29%
M5 exposure as share of entrectinib exposure (mean M5/entrectinib ratio for AUCinf) ([2]; entrectinib 100 mg coadministered with itraconazole): 12%
AUCinf ([3]; Entrectinib 600 mg alone, single dose, healthy subjects, fasted): 11,000 (44%) nM•h
M5/Entrectinib ratio, AUCinf ([3]; Entrectinib 600 mg alone): 0.337 (56%)
M5/Entrectinib ratio, Cmax ([3]; Entrectinib 600 mg alone): 0.234 (59%)
Cmax ([3]; Entrectinib 600 mg alone): 0.383 µM
t1/2 ([3]; Entrectinib 600 mg alone): 33.8 (12%) h
Tmax ([3]; Entrectinib 600 mg alone, median (minimum, maximum)): 5.0 (4.0, 5.0) h
AUCinf [3, 9]: 1530 (28%) nM•h
Cmax [3, 9]: 0.108 µM
t1/2 [3, 9]: 31.1 (28%) h
Tmax ([3]; Entrectinib 600 mg with rifampin 600 mg QD, median (minimum, maximum)): 3.0 (2.0, 6.0) h
M5/Entrectinib ratio, AUCinf [3, 10]: 0.187 (28%)
M5/Entrectinib ratio, Cmax [3, 10]: 0.136 (23%)
M5 exposure as share of entrectinib exposure (mean M5/entrectinib ratio for AUCinf) ([3]; entrectinib 600 mg alone): approximately 34%
M5 exposure as share of entrectinib exposure (mean M5/entrectinib ratio for AUCinf) ([3]; entrectinib 600 mg coadministered with rifampin): 19%
mean t1/2 ([3]; following entrectinib alone and with rifampin): 31 to 34 h
IC50 (CYP2B6): > 10 µM
IC50 (CYP2C9): > 10 µM
M5 Metabolism (CYP2C19): -
M5 Metabolism (CYP2D6): -
M5 Metabolism (CYP3A4 [4]): +++
M5 Metabolism (CYP3A5): ++
share of [14C]entrectinib-derived radioactivity ([5]; human liver microsomes): 28%
free Cmax lower than the CYP2C8 IC50 (CYP2C8; free Cmax 0.0134 μM vs IC50 about 4.9 μM): > 300 fold
IC50 (CYP2C8): ~4.9 µM and 4.9 µM

CN1CCN(c2ccc(C(=O)Nc3n[nH]c4ccc(Cc5cc(F)cc(F)c5)cc34)c(NC3CCOCC3)c2)CC1 [Entrectinib]
induction of CYP1A2 mRNA or enzyme activity (CYP1A2; human hepatocytes): did not significantly induce
CYP3A4 induction in vitro, in words (CYP3A4 [1]; in vitro): weak CYP3A4 inducer
t1/2 [2, 6]: 20.2 (17%) h
t1/2 [2, 7]: 49.8 (22%) h
increase of AUCinf ([2]; entrectinib coadministered with itraconazole vs alone): 504%
Tmax ([2]; human, in vivo): 5 h
AUC(0-inf) ([2]; human, in vivo, 100 mg): 6.19 µM·h
Cmax ([2]; human, in vivo, 100 mg): 0.358 µM
Tmax ([2]; human, in vivo, 100 mg): 2 h
half-life ([2]; human, in vivo, 100 mg, t1/2, Entrectinib 100 mg alone, geometric mean (geometric CV)): 20 h
half-life ([2]; human, in vivo, t1/2, Entrectinib 100 mg with itraconazole 200 mg QD, geometric mean (geometric CV)): 50 h
median Tmax later ([2]; with itraconazole vs entrectinib alone): approximately 3 h
t1/2 ([3]; Entrectinib 600 mg alone): 16.7 (16%) h
t1/2 [3, 9]: 9.9 (26%) h
decrease of AUCinf ([3]; entrectinib coadministered with rifampin vs alone): 77%
Tmax ([3]; human, in vivo, 600 mg): 2.0 (2.0, 5.0) h
Tmax ([3]; human, in vivo, 600 mg, Tmax): 3.5 h
half-life ([3]; human, in vivo, 600 mg, t1/2, Entrectinib 600 mg alone): 17 h
half-life ([3]; human, in vivo, 600 mg, t1/2, Entrectinib 600 mg with rifampin 600 mg QD): 10 h
IC50 (CYP2B6): > 10 µM
IC50 (CYP2C9): > 10 µM
Entrectinib Metabolism to M5 (CYP2C19): ++
Entrectinib Metabolism to other Products (CYP2C19): -
Entrectinib Metabolism to M5 (CYP2D6): +
Entrectinib Metabolism to other Products (CYP2D6): -
Entrectinib Metabolism to M5 (CYP3A4 [4]): +++
Entrectinib Metabolism to other Products (CYP3A4 [4]): +++
Entrectinib Metabolism to M5 (CYP3A5): ++
Entrectinib Metabolism to other Products (CYP3A5): +
parent remained ([5]; 60 min incubation, pooled human liver microsomes with NADPH): 47%
IC50 (CYP2C8): > 10 µM
